Where two headings read alike, the source gives them in different places.
Legend:
[1] = Degradation kinetics without solar irradiation (darkness); assay type: physicochemical
[2] = Degradation kinetics with solar irradiation
E. coli = assay: Disinfection experiments, membrane filter enumeration, E. coli; assay type: cell-based, Escherichia coli
Experimental: Disinfection experiments were performed in phosphate buffer saline (PBS; 10 mM, pH 7.2) with an initial concentration of E. coli of 10^6-10^7 colony forming units per milliliter (CFU mL^−1). Different concentrations of disinfection byproducts were added to the cell suspensions individually at room temperature (˜22° C.) with a contact time of 5 min. After the given contact time, the microorganism cells were enumerated following a membrane filter method. Briefly, serial ten-fold dilutions were conducted for the disinfected samples and the control sample without disinfection. Each diluted suspension was subjected to filtration through 0.45-μm membrane, which was then placed on a petri dish containing m-FC medium. After incubation at 45° C. for 24 hours, the colony forming units within a statistically reasonable range (20-80) were counted. The disinfection experiments were performed in duplicate. All the materials for the disinfection experiments were autoclaved at 121° C. for 15 min and cooled to room temperature before use.
(§1) The disinfection experiments were performed in PBS solutions (10 mM, pH 7.2) with an initial concentration of E. coli, S. aureus, or C. albicans of 10^6-10^7 CFU mL^−1. Different concentrations of 2,6-DCQ or PCMX were added to the cell suspensions at room temperature (˜22° C.) After the given contact time (i.e., 5 min), the microorganism cells were enumerated following a membrane filter method. Briefly, serial ten-fold dilutions were conducted for the disinfected samples and the control sample without disinfection. Each diluted suspension was filtered through a 0.45-μm filter paper, which was then placed on a petri dish. The petri dishes containing E. coli, S. aureus, and C. albicans were incubated in m-FC medium at 45° C. for 24 h, Tryptone Soya broth at 37° C. for 24 h, and Sabouraud Dextrose broth at 37° C. for 24 h, respectively. After incubation, the colony forming units within a statistically reasonable range (20-80) were counted. The disinfection experiments were performed in duplicate. All the materials for the disinfection experiments were autoclaved at 121° C. for 15 min and cooled to room temperature before use.
The disinfection experiments were performed in PBS solutions (10 mM, pH 7.2) with an initial concentration of E. coli of 10^6-10^7 CFU mL^−1. 2,5-Dichloro-1,4-benzoquinone (7.5 and 15 mg L^−1) or 2,6-DCQ (7.5 and 15 mg L^−1) was added to the cell suspensions at room temperature (˜22° C.). After the given contact time (i.e., 5 min), the microorganism cells were enumerated following a membrane filter method. Briefly, serial ten-fold dilutions were conducted for the disinfected samples and the control sample without disinfection. Each diluted suspension was subjected to filtration through 0.45-μm membrane, which was then placed on a petri dish. The petri dishes containing E. coli were incubated in m-FC medium at 45° C. for 24 hours. After incubation, the colony forming units within a statistically reasonable range (20-80) were counted. The disinfection experiments were performed in duplicate. All the materials for the disinfection experiments were autoclaved at 121° C. for 15 min and cooled to room temperature before use.
The disinfection experiments were performed in PBS solutions (10 mM, pH 7.2) with an initial concentration of E. coli of 10^6-10^7 CFU mL^−1. 2,6-DBQ (2,6-dibromo-1,4-benzoquinone), 2,6-DIQ (2,6-diiodo-1,4-benzoquinone), or 2,6-DCQ was added to the cell suspensions at room temperature (˜22° C.) with a contact time of 5 min. After the given contact time, the microorganism cells were enumerated following a membrane filter method. Briefly, serial ten-fold dilutions were conducted for the disinfected samples and the control sample without disinfection. Each diluted suspension was subjected to filtration through 0.45-μm membrane, which was then placed on a petri dish. The petri dishes containing E. coli were incubated in m-FC medium at 45° C. for 24 hours.

rainbow trout = conditions: environmentally relevant concentrations (˜4.2 μg L^−1); cited from earlier work
zebrafish embryos = conditions: in vivo; cited from earlier work
C. albicans = assay: Disinfection experiments, membrane filter enumeration, C. albicans; assay type: cell-based, Candida albicans; conditions: for inactivation rate constant / Dose for achieving 3-log (99.9%) inactivation: C. albicans
Experimental: as §1

[3] = test system: antibiotic resistance genes; conditions: environmentally relevant concentrations; cited from earlier work
S. aureus = assay: Disinfection experiments, membrane filter enumeration, S. aureus; assay type: cell-based, Staphylococcus aureus; conditions: for inactivation rate constant / Dose for achieving 3-log (99.9%) inactivation: S. aureus
Experimental: as §1

[4] = test system: E. coli, S. aureus and C. albicans; assay: Disinfection experiments, comparison across the three types of pathogens; assay type: cell-based, Escherichia coli, Staphylococcus aureus, Candida albicans
Experimental: as §1

P. dumerilii embryos = assay: P. dumerilii embryo developmental toxicity; assay type: in vivo, Platynereis dumerilii
Source text: The doses of 2,6-DCQ and PCMX for 3-log E. coli inactivation (pH 7.2) were set as the in-use concentrations, which were serially diluted and added to the embryos of a marine polychactc, Platynereis dumerilii, at 12-hour postfertilization. A dilution factor was defined as the ratio of the in-use concentration to the exposure concentration. Each exposure set contained a control sample (i.e., the embryos at 12-hour postfertilization developed in seawater). By 24-hour postfertilization, normally developed embryos should have reached the first larval stage. An inverted stereomicroscope (40× magnification) was used to observe the larvae. The normal development percentage was calculated as the ratio of normally developed embryos to total embryos. By plotting the curve of the normal development percentage versus the dilution factor, the EC50,DF value (i.e., the dilution factor corresponding to 50% of the normal development percentage of the control sample) was obtained using SigmaPlot 12. The developmental toxicity test was conducted in duplicate.

[5] = Storage stability in solid form or in an organic solvent; assay type: physicochemical
[6] = pH not given, read-out: Half-life, without solar irradiation (converted)

In the case of `Oc1cc(Cl)c(O)cc1Cl` [2,5-Dichlorohydroquinone, 2,5-dichlorohydroquinone], the “k, degradation, without solar irradiation” value ([1]; pH not given) is reported as 0.0922 h⁻¹, the half-life [1, 6] is reported as 0.13 h and the half-life [2] is reported as 0.11 h. The “k, degradation, with solar irradiation” value ([2]; pH not given) was 0.101 h⁻¹.
With `Oc1cc(Br)c(O)cc1Br` [2,5-Dibromohydroquinone, 2,5-dibromohydroquinone] the “k, degradation, without solar irradiation” value ([1]; pH not given) was 0.0767 h⁻¹, the half-life [1, 6] was 0.15 h and the half-life [2] was 0.15 h. For the same compound, the “k, degradation, with solar irradiation” value ([2]; pH not given) was 0.787 h⁻¹.
For `O=C1C=C(Br)C(=O)C(Br)=C1` [2,6-DBQ, 2,6-dibromo-1,4-benzoquinone], the “disinfection efficacy compared with 2,6-DCQ” value (E. coli; pH 7.2) was “comparable disinfection efficacy”.
In the case of `Oc1cc(I)c(O)cc1I` [2,5-Diiodohydroquinone, 2,5-diiodohydroquinone], the “k, degradation, without solar irradiation” value ([1]; pH not given) is reported as 0.078 h⁻¹, the half-life [1, 6] is reported as 0.15 h and the half-life [2] is reported as 0.15 h. The “k, degradation, with solar irradiation” value ([2]; pH not given) was 0.756 h⁻¹.
For “para-chloro-meta-xylenol [PCMX, reference compound]”, the “Half-life, without solar irradiation” value ([1]; pH 8.2) was 5578 h, the “k, degradation, without solar irradiation” value ([1]; pH 8.2) was 0.00012 h⁻¹ and the “Half-life, without solar irradiation” value ([1]; seawater pH (pH 8.2)) was ~5760 h. For the same compound, the inactivation rate constant (E. coli; E. coli) was 11000 µL/min/mg, the inactivation rate constant (E. coli; E. coli, pH 7.2, contact time 5 min) was 11000 µL/min/mg and the “Dose for achieving 3-log (99.9%) inactivation” value (E. coli; pH 7.2) was 188 mg/L. The “Half-life, with solar irradiation” value ([2]; pH 8.2) was 257 h, the “k, degradation, with solar irradiation” value ([2]; pH 8.2) was 0.0027 h⁻¹ and the “half-life under solar irradiation” value ([2]; pH 8.2, seawater pH) was 257 h. For the same compound, the “effects of chronic exposure in rainbow trout” value (rainbow trout) was “gene regulation and morphological changes”, the “adverse effects in zebrafish embryos” value (zebrafish embryos) was “mortality, morphological malformations, and neurotoxicity” and the inactivation rate constant (C. albicans) was 3500 µL/min/mg. The “Dose for achieving 3-log (99.9%) inactivation” value (C. albicans; pH 7.2, contact time 5 min) was 325 mg/L, the inactivation rate constant (C. albicans; pH 7.2, contact time 5 min) was 3500 µL/min/mg and the “effect on antibiotic resistance genes” value [3] was “promote the spread of antibiotic resistance genes”. The inactivation rate constant (S. aureus) was 3500 µL/min/mg, the “Dose for achieving 3-log (99.9%) inactivation” value (S. aureus; pH 7.2, contact time 5 min) was 312 mg/L and the inactivation rate constant (S. aureus; pH 7.2, contact time 5 min) was 3500 µL/min/mg. For the same compound, the “in-use doses for 99.9% inactivation, times higher than those of 2,6-DCQ” value ([4]; three types of pathogens, contact time 5 min) was 10-15 times.
With `O=C1C=C(Cl)C(=O)C=C1Cl` [2,5-DCQ, 2,5-dichloro-1,4-benzoquinone] the “disinfection efficacy compared with 2,6-DCQ” value (E. coli; pH 7.2) was “comparable disinfection efficacy”.
With `Oc1ccc(Cl)cc1Cl` [2,4-Dichlorophenol, 2,4-dichlorophenol] the half-life (physchem) was 44 h and the “k, degradation, with solar irradiation” value ([2]; pH not given) was 0.0157 h⁻¹.
With `Oc1ccc(I)cc1I` [2,4-Diiodophenol, 2,4-diiodophenol] the “Half-life, with solar irradiation” value ([2]; pH not given) was 83 h and the “k, degradation, with solar irradiation” value ([2]; pH not given) was 0.0083 h⁻¹.
In the case of `O=C1C=C(I)C(=O)C(I)=C1` [2,6-DIQ, 2,6-diiodo-1,4-benzoquinone], the “disinfection efficacy compared with 2,6-DCQ” value (E. coli; pH 7.2) is reported as “comparable disinfection efficacy”.
For `O=C1C=C(Cl)C(=O)C(Cl)=C1` [2,6-DCQ, 2,6-dichloro-1,4-benzoquinone], the half-life ([1]; buffer, pH 6.2, read-out: half-life in darkness (converted)) was 65.5 h, the half-life ([1]; buffer, pH 7.2, read-out: half-life in darkness (converted)) was 15.1 h and the “Half-life, without solar irradiation” value ([1]; pH 6.2) was 65.5 h. For the same compound, the “k, degradation, without solar irradiation” value ([1]; pH 6.2) was 0.010 h⁻¹, the “Half-life, without solar irradiation” value ([1]; pH 7.2) was 15.1 h and the “k, degradation, without solar irradiation” value ([1]; pH 7.2) was 0.046 h⁻¹. For the same compound, the “Half-life, without solar irradiation” value ([1]; pH 8.2) was 1.74 h, the “k, degradation, without solar irradiation” value ([1]; pH 8.2) was 0.397 h⁻¹ and the inactivation (E. coli) was 99.9%. The inactivation rate constant (E. coli) was 91700 µL/min/mg, the “dose required for 99.9% inactivation, times lower than those of the other nine disinfection byproducts” value (E. coli; E. coli, contact time of 5 minutes) was 8.8-500 times and the “inactivation rate constant, times greater than those of other disinfection byproducts” value (E. coli; E. coli, versus the other nine disinfection byproducts) was 8.8-500 times. The “Dose for achieving 3-log (99.9%) inactivation” value (E. coli; pH 7.2) was 12.8 mg/L, the inactivation rate constant (E. coli; pH 7.2) was 91700 µL/min/mg and the “Half-life, with solar irradiation” value ([2]; pH 6.2) was 4.13 h. For the same compound, the “k, degradation, with solar irradiation” value ([2]; pH 6.2) was 0.17 h⁻¹, the “half-life under solar irradiation” value ([2]; pH 7.2) was 3.20 h and the “k, degradation, with solar irradiation” value ([2]; pH 7.2) was 0.22 h⁻¹. The “Half-life, with solar irradiation” value ([2]; pH 8.2) was 1.33 h, the “k, degradation, with solar irradiation” value ([2]; pH 8.2) was 0.52 h⁻¹ and the “half-lives, times shorter than those of PCMX” value ([2]; seawater (pH 8.2), with and without solar irradiation) was “about 200 times”. For the same compound, the “developmental toxicity, times lower than PCMX” value (P. dumerilii embryos; 48 hours after discharge into seawater) was 31 times, the “developmental toxicity compared with PCMX” value (P. dumerilii embryos; after 2 hours of degradation in seawater) was “lower developmental toxicity” and the inactivation rate constant (C. albicans) was 31200 µL/min/mg. For the same compound, the “Dose for achieving 3-log (99.9%) inactivation” value (C. albicans; pH 7.2, contact time 5 min) was 35.7 mg/L, the inactivation rate constant (C. albicans; pH 7.2, contact time 5 min) was 31200 µL/min/mg and the inactivation (C. albicans; Candida albicans ATCC 14053, contact time of 5 minutes) was 99.9%. The time remaining stable [5] was “at least 24 months”, the inactivation rate constant (S. aureus) was 20000 µL/min/mg and the “Dose for achieving 3-log (99.9%) inactivation” value (S. aureus; pH 7.2, contact time 5 min) was 29.4 mg/L. For the same compound, the inactivation rate constant (S. aureus; pH 7.2, contact time 5 min) was 20000 µL/min/mg, the inactivation (S. aureus; Staphylococcus aureus ATCC 25923, contact time of 5 minutes) was 99.9% and the “disinfection efficacy, times higher than PCMX” value [4] was 10-15 times. For the same compound, the “reduction of disinfectant doses for 99.9% inactivation by switching from PCMX to 2,6-DCQ” value ([4]; E. coli, S. aureus and C. albicans) was 89-93% and the “in-use doses for 99.9% inactivation, times lower than the corresponding doses of PCMX” value ([4]; E. coli, S. aureus and C. albicans, contact time 5 min) was 10-15 times.
In the case of `Oc1ccc(Br)cc1Br` [2,4-Dibromophenol, 2,4-dibromophenol], the half-life [2] is reported as 35 h and the “k, degradation, with solar irradiation” value ([2]; pH not given) is reported as 0.0201 h⁻¹.

From US12557811B2, “Effective and eco-friendly disinfectant” (The Hong Kong University of Science and Technology, priority 2022, dated 2026)
